Consider 32 molecules from ChEMBL document CHEMBL2380251, “Antiproliferative activity of 2,3-disubstituted indoles toward apoptosis-resistant cancers cells” (2013).

Structures are written as SMILES. Activity calls are given as the source filed them. The calls are words filed in the database; no cut-off is given here.

Test [1] relates to SK-MEL-28. Kind of test: Growth inhibition of apoptosis-resistance human SK-MEL-28 cells after 72 hrs by MTT assay. The note with it: SK-MEL-28, 72 h. The format is functional. A general note: Formazan colour is commonly taken as a measure of viable cells.
Another test relates to B16-F10. Kind of test: Growth inhibition of apoptosis-resistance mouse B16F10 cells after 72 hrs by MTT assay. The format is functional. The note with it: B16-F10, 72 h.
A short description of test [2]: Growth inhibition of apoptosis-resistance human U373 cells after 72 hrs by MTT assay. The format is functional, U-373MG ATCC. The note with it: U373 MG.
Another test deals with Hs 683. Kind of test: Growth inhibition of apoptosis-sensitive human Hs 683 cells after 72 hrs by MTT assay. Type of test: functional. To be noted: Hs 683, 72 h.
For test [3], the system named is A549. Put plainly: Growth inhibition of apoptosis-resistance human A549 cells after 72 hrs by MTT assay. To be noted: A549, 72 h. Type of test: functional.
Test [4] concerns SK-MEL-28. Put plainly: Induction of membrane permeabilization in apoptosis-resistance human SK-MEL-28 cells at GI50 after 72 hrs by propidium iodide staining-based flow cytometric analysis. Type of test: functional, cell-based. A general note: Flow cytometry measures light scatter and fluorescence of single cells or particles in a stream.
Test [5] has as its system A549. Kind of test: Cytostatic activity against apoptosis-resistance human A549 cells assessed as cell growth at GI50 after 72 hrs by phase contrast microscopic analysis relative to control. The format is functional.
For test [6], the system named is A549. Kind of test: Induction of apoptosis in apoptosis-resistance human A549 cells at GI50 after 72 hrs by phase contrast microscopic analysis. Type of test: functional, cell-based.
In test [7] the test system is A549. Kind of test: Induction of membrane permeabilization in apoptosis-resistance human A549 cells at GI50 after 72 hrs by propidium iodide staining-based flow cytometric analysis. The format is functional, cell-based.
For test [8], the system named is SK-MEL-28. Kind of test: Induction of apoptosis in apoptosis-resistance human SK-MEL-28 cells at GI50 after 72 hrs by phase contrast microscopic analysis. The format is functional, cell-based.
The subject of test [9] is SK-MEL-28. Put plainly: Cytostatic activity against apoptosis-resistance human SK-MEL-28 cells assessed as cell growth at GI50 after 72 hrs by phase contrast microscopic analysis relative to control. The format is functional.

What is called GI50 is the concentration at which growth is held to half of that of the control. A higher GI50 goes with less potent growth inhibition. Regarding `O=C(COc1ccc(Cl)cc1)Nc1c(-c2ccccc2)[nH]c2ccccc12`, the GI50 in the test with SK-MEL-28 [1] was found to be 48 µM; in the test on B16-F10 it was 32 µM; in [2] it was 66 µM; with Hs 683 it was 38 µM; in the test with A549 [3] it was 37 µM.
On to `Cc1cc(C)n(-c2c(-c3ccccc3)[nH]c3ccccc23)n1`, for which the GI50 in the test on SK-MEL-28 [1] is 84 µM; in the test with B16-F10, over 100 µM; in test [2], 84 µM; in the test on Hs 683 it was 67 µM; in the test with A549 [3] it was 61 µM.
Consider `Cc1cc(C)n(-c2c(-c3cccs3)[nH]c3ccc(Cl)cc23)n1`, for which the concentration for 50% growth inhibition (GI50) in the test on SK-MEL-28 [1] amounted to 35 µM; with B16-F10, 36 µM; in [2], 32 µM; in the test on Hs 683 it was 32 µM; in the test with A549 [3] it was 40 µM.
For `OC1CCCN(C(=S)Sc2c(-c3ccc(Br)cc3)[nH]c3ccc(Cl)cc23)C1` (stereo unspecified), the GI50 in the test on SK-MEL-28 [1] stood at 34 µM; in the test with B16-F10, 37 µM; in test [2], 39 µM; in the test on Hs 683, 31 µM; with A549 [3] it was 29 µM.
Taken in the same sequence, the figures for `Cc1onc(-c2c(F)cccc2Cl)c1C(=O)Nc1c(-c2ccccc2)[nH]c2ccccc12` were 13 µM, 22 µM, 24 µM, 15 µM and 9 µM.
In the same order, the values of `OC1CCCN(C(=S)Sc2c(-c3ccc(Br)cc3)[nH]c3ccccc23)C1` (stereo unspecified) are 28 µM, 29 µM, 32 µM, 24 µM and 24 µM.
In the same order, the values of `Clc1ccc(Sc2c(-c3ccc(Cl)cc3)[nH]c3ccc(Cl)cc23)cc1` are 34 µM, 28 µM, 28 µM, 31 µM and 27 µM.
As to `COc1ccc2[nH]c(-c3ccc(Cl)cc3)c(Oc3ccc(Cl)cc3)c2c1`, the GI50 with SK-MEL-28 [1] is 57 µM; in the test on B16-F10 it was 31 µM; in [2], 50 µM; in the test on Hs 683, 54 µM; in the test on A549 [3], 59 µM.
Taken in the same sequence, the figures for `CCOC(=O)C1CCN(C(=S)Sc2c(-c3ccc(Br)cc3)n(C)c3ccccc23)CC1` were 78 µM, 50 µM, over 100 µM, 85 µM and 72 µM.
Taken in the same sequence, the figures for `CCOC(=O)C1CCN(C(=S)Sc2c(-c3ccc(Br)cc3)[nH]c3ccc(C)cc23)CC1` were 52 µM, 37 µM, 68 µM, 34 µM and 37 µM.
For the molecule `CCOC(=O)c1ccc2[nH]c(-c3ccc(Cl)cc3)c(Oc3ccc(Cl)cc3)c2c1`, the GI50 in the test with SK-MEL-28 [1] worked out at 28 µM; in the test on B16-F10, 20 µM; in test [2], 35 µM; in the test with Hs 683, 24 µM; in the test on A549 [3] it was 28 µM.
Regarding `CCN(CC)C(=S)Sc1c(-c2ccc(Br)cc2)[nH]c2ccc(Br)cc12`, the concentration for 50% growth inhibition (GI50) with SK-MEL-28 [1] stood at 29 µM; in the test on B16-F10 it was 33 µM; in test [2] it was 9 µM; in the test with Hs 683 it was 22 µM; in the test with A549 [3], 22 µM.
Turning to `O=C(Nc1c(-c2ccccc2)[nH]c2ccc(Cl)cc12)c1cc2ccccc2oc1=O`, the 50% growth inhibitory concentration (GI50) in the test on SK-MEL-28 [1] was 55 µM; in the test with B16-F10, 27 µM; in test [2], 66 µM; in the test with Hs 683 it was 45 µM; in the test with A549 [3], 37 µM.
For the molecule `O=C(CSCc1ccccc1)Nc1c(-c2ccccc2)[nH]c2ccccc12`, the concentration for 50% growth inhibition (GI50) in the test with SK-MEL-28 [1] was 30 µM; in the test on B16-F10, 35 µM; in test [2] it was 47 µM; in the test with Hs 683, 33 µM; with A549 [3] it was 30 µM.
`Cc1cc(C)n(-c2c(-c3ccccc3)[nH]c3ccc(F)cc23)n1`: the 50% growth inhibitory concentration (GI50) was found to be 31 µM in the test on SK-MEL-28 [1]; 39 µM in the test on B16-F10; 47 µM in test [2]; 32 µM with Hs 683; 29 µM with A549 [3].
Taken in the same sequence, the figures for `Clc1ccc(Oc2c(-c3ccc(Cl)cc3)[nH]c3ccc(Br)cc23)cc1` were 28 µM, 29 µM, 35 µM, 26 µM and 30 µM.
For the molecule `CCN(CC)C(=S)Sc1c(-c2ccccc2)[nH]c2ccc(Br)cc12`, the GI50 with SK-MEL-28 [1] stood at 28 µM; in the test on B16-F10, 40 µM; in test [2], 36 µM; with Hs 683, 26 µM; in the test on A549 [3], 31 µM.
Taken in the same sequence, the figures for `Cc1ccc2[nH]c(-c3ccc(Cl)cc3)c(-n3nc(C)cc3C)c2c1` were 46 µM, 65 µM, 43 µM, 50 µM and 42 µM.
In the same order, the values of `Cc1cc(C)n(-c2c(-c3cccs3)[nH]c3ccccc23)n1` are 80 µM, 73 µM, 90 µM, 58 µM and 38 µM.
In the same order, the values of `CCOC(=O)C1CCN(C(=S)Sc2c(-c3ccc(Br)cc3)[nH]c3ccc(Cl)cc23)CC1` are 39 µM, 21 µM, 33 µM, 36 µM and 34 µM.
With `Brc1ccc(/N=N/c2c(-c3ccc(Br)cc3)[nH]c3ccccc23)cc1`, the 50% growth inhibitory concentration (GI50) with SK-MEL-28 [1] came out at 31 µM; in the test with B16-F10, 26 µM; in test [2] it was 30 µM; with Hs 683, 24 µM; in the test with A549 [3], 23 µM.
For `Clc1ccc(Sc2c(-c3ccc(Br)cc3)[nH]c3ccccc23)cc1`, the 50% growth inhibitory concentration (GI50) with SK-MEL-28 [1] came out at 26 µM; in the test with B16-F10 it was 35 µM; in test [2], 24 µM; with Hs 683, 25 µM; with A549 [3] it was 26 µM.
In the case of `Fc1cccc2c(Oc3ccc(Cl)cc3)c(-c3ccc(Cl)cc3)[nH]c12`, the GI50 with SK-MEL-28 [1] was found to be 8 µM; in the test with B16-F10, 8 µM; in test [2], 8 µM; with Hs 683, 7 µM; in the test with A549 [3], 7 µM.
For `Clc1ccc(Sc2c(-c3ccc(Cl)cc3)[nH]c3ccccc23)cc1`, the concentration for 50% growth inhibition (GI50) was 34 µM in the test with SK-MEL-28 [1]; 28 µM in the test with B16-F10; 28 µM in test [2]; 31 µM in the test with Hs 683; 27 µM in the test with A549 [3]. Moreover, the result with SK-MEL-28 [4], with A549 [6], in the test with A549 [7] and in the test on SK-MEL-28 [8] was inactive. The Activity was determined as 30% with A549 [5] and 10% in the test with SK-MEL-28 [9].
Regarding `S=C(Sc1c(-c2ccc(Br)cc2)[nH]c2ccccc12)N1CCOCC1`, the concentration for 50% growth inhibition (GI50) in the test with SK-MEL-28 [1] was 35 µM; in the test with B16-F10 it was 20 µM; in test [2] it was 43 µM; with Hs 683, 32 µM; in the test on A549 [3], 31 µM.
Taken in the same sequence, the figures for `Clc1ccc(Oc2c(-c3ccc(Cl)cc3)[nH]c3ccccc23)cc1` were 28 µM, 29 µM, 25 µM, 28 µM and 25 µM.
For `Clc1ccc(/N=N/c2c(-c3ccc(Br)cc3)[nH]c3ccccc23)cc1`, the concentration for 50% growth inhibition (GI50) was found to be 33 µM in the test with SK-MEL-28 [1]; 33 µM with B16-F10; 33 µM in test [2]; 31 µM in the test with Hs 683; 26 µM in the test on A549 [3].
Consider `Cc1ccc2[nH]c(-c3ccccc3)c(-n3nc(C)cc3C)c2c1`, for which the GI50 in the test with SK-MEL-28 [1] turned out to be 33 µM; with B16-F10 it was 40 µM; in test [2], 10 µM; in the test on Hs 683 it was 29 µM; with A549 [3], 26 µM.
Regarding `CCOC(=O)C1CCN(C(=S)Sc2c(-c3ccc(Br)cc3)[nH]c3ccccc23)CC1`, the 50% growth inhibitory concentration (GI50) was 36 µM with SK-MEL-28 [1]; 27 µM with B16-F10; 35 µM in [2]; 36 µM in the test on Hs 683; 34 µM in the test with A549 [3].
As to `Clc1ccc(Oc2c(-c3ccc(Cl)cc3)[nH]c3ccc(Cl)cc23)cc1`, the GI50 with SK-MEL-28 [1] stood at 19 µM; in the test on B16-F10, 10 µM; in test [2], 13 µM; with Hs 683 it was 13 µM; in the test on A549 [3], 10 µM.
Take `O=C(Nc1c(-c2ccccc2)[nH]c2ccccc12)C12CC3CC(CC(C3)C1)C2`: the concentration for 50% growth inhibition (GI50) is 67 µM in the test on SK-MEL-28 [1]; 44 µM in the test on B16-F10; 38 µM in [2]; 69 µM in the test on Hs 683; 38 µM in the test with A549 [3].
Take `Fc1ccc2[nH]c(-c3ccc(Cl)cc3)c(Oc3ccc(Cl)cc3)c2c1`: the GI50 in the test with SK-MEL-28 [1] was determined as 24 µM; in the test on B16-F10 it was 14 µM; in test [2], 20 µM; with Hs 683 it was 22 µM; with A549 [3] it was 22 µM.
